The record followed here is PubChem BioAssay AID504458 (NMMLSC, 2011).

This test concerns the target General amino acid permease AGP1 (Saccharomyces cerevisiae (strain ATCC 204508 / S288c)) (UniProt P25376). The test can be described thus: compound effects on AGP1 permease GFP reporter – TOR pathway, S. cerevisiae, flow cytometry, KU SAR set 2, multiplex, dose response (AID 504458). As to conditions: flow cytometry fluorescence, 3 h. (A flow cytometer gives signals particle by particle.)

Active and inactive are the calls of the source. The rule behind the calls is not given here.

Sequence of General amino acid permease AGP1 (Saccharomyces cerevisiae (strain ATCC 204508 / S288c)) (P25376 whole entry, looked up): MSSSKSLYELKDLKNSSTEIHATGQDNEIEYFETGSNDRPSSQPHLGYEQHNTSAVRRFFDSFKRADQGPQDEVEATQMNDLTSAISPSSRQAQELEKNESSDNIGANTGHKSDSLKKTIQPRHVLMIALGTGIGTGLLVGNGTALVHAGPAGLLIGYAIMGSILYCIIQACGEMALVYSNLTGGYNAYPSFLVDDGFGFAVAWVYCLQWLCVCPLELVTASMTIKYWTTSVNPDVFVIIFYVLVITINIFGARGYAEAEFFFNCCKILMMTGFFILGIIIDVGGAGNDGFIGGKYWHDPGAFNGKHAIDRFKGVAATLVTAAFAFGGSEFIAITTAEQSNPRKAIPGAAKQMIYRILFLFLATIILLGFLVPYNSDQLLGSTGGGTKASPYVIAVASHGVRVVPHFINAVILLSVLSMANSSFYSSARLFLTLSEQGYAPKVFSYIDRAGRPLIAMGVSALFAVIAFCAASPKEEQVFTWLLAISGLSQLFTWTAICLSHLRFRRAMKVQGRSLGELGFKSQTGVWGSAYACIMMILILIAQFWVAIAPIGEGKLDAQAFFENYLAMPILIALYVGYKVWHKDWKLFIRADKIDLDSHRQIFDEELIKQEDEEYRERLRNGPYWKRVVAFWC

A word on the EC50: it is the midpoint of the concentration-response curve. Consider `CCNc1nc(N)c([N+](=O)[O-])c(Nc2cccc(Cl)c2)n1`, for which the EC50 is 9.69 µM.
With `O=[N+]([O-])c1c(NC2CCCCC2)nc(NCc2ccccc2)nc1N1CCOCC1`, the EC50 result was “inactive”.
Turning to `CNc1nc(N)cc(Nc2cccc(Cl)c2)n1`, the EC50 result is “inactive”.
Consider `Cc1cc(Nc2cc(-c3ccccc3)nc(NCc3ccccc3)n2)n[nH]1`, for which the EC50 result is “inactive”.
Next, `CNc1nc(N)cc(Nc2ccccc2F)n1`: “inactive”; `CCOC(=O)c1c(N)nc(NC)nc1Nc1cccc(F)c1`: “inactive”.
With `CNc1nc(N)c([N+](=O)[O-])c(Nc2ccccc2Br)n1`, the EC50 result was “inactive”.
In the case of `CCNc1nc(NC2CCCCC2)c([N+](=O)[O-])c(N2CCOCC2)n1`, the EC50 entry was “inactive”.
With `CNc1nc(N)c([N+](=O)[O-])c(Nc2cccc(Oc3ccccc3)c2)n1`, the EC50 entry is “inactive”.
Next, `CNc1nc(N)c(C(=O)c2ccc(C)c(C)c2)c(Nc2cccc(Cl)c2)n1`: “inactive”; `CNc1nc(NC)c([N+](=O)[O-])c(Nc2cccc(Cl)c2)n1`: “inactive”.
Take `CNc1nc(N)cc(Oc2cccc(Cl)c2)n1`: the EC50 entry was “inactive”.
The same measure for `COC(=O)c1cccc(-c2cc(Nc3cc(C)[nH]n3)nc(NCc3ccccc3)n2)c1`: “inactive”; for `Cc1cc(Nc2cc(Nc3ccccc3)nc(NCc3ccccc3)n2)n[nH]1`: “inactive”.
The same measure for `COc1ccccc1-c1cc(Nc2cc(C)[nH]n2)nc(NCc2ccccc2)n1`: “inactive”.
